Experimental data: US5858995A, “Benzofuran derivatives useful as inhibitors of bone resorption” (Fujisawa Pharmaceutical Co., Ltd., priority 1994, dated 1999)

System: PTH-induced bone resorption (calvariae)
Test: Bone organ culture: inhibition of PTH-induced bone resorption in rat calvariae
Format: cell-based
Conditions: Compound dose = 1 × 10^-5 (M); calvariae from Wistar rats, 10^-8 M human PTH (1-34); calcium in medium after six days
Description: Test (Bone organ culture)
Calvariae from Wistar rats were excised and cultured in wells of 12-well culture plates containing 2 ml of Dulbecco's modified minimum essential medium supplemented with 10% fetal bovine serum and 10^-8 M human parathyroid hormone fragment (1-34) [PTH] in the presence of the test compound. In control dishes, PTH was not added. Control and PTH control were exposed to an equivalent concentration of the vehicle. Six days later, the concentration of calcium in the medium was measured by methylxylenol blue method and the percentage of inhibition of PTH-induced bone resorption was calculated according to following formula. [formula] Test Result

Cc1oc2c(NC(=O)c3c(Cl)cccc3Cl)cccc2c1C [Test Compound (1), 7-(2,6-Dichlorobenzoylamino)-2,3-dimethylbenzo[b]furan]
Inhibition (%) of PTH-induced bone resorption: 100%
